One series has as its target E. coli EF-Tu•GTP (Escherichia coli, UniProt P0CE47). In words: biochemical. In kind it is binding.
The test system of series [1] is B. anthracis vegetative cells, germinants, and spores. The settings on record: in vitro and after ex vivo infection of macrophages; cited from earlier work.
Another series deals with EF-Tu•GTP R318N (Escherichia coli, UniProt P0CE47, R319N). Nature of the series: MST binding assay, EF-Tu R318N mutant.
In the next series the test system is trans-translation. In words: In vitro trans-translation assay (tagging of DHFR from nonstop template with tmRNA-SmpB). Particulars: 10 µM compound; percentage of total DHFR in tagged DHFR band; DMSO control 90 ± 7.
A further series deals with EF-Tu•GTP E378A (Escherichia coli, UniProt P0CE47, E379A). In words: MST binding assay, EF-Tu E378A mutant.
In another series the test system is E. coli ∆tolC. In words: microbe, parasite or virus in culture. It counts as cell-based. The settings on record: Escherichia coli.
The target of another series is EF-Tu•GTP H319A (Escherichia coli, UniProt P0CE47, H320A). Nature of the series: MST binding assay, EF-Tu H319A mutant.
The subject of the next series is Francisella tularensis. Particulars: compared with tetracycline; cited from earlier work.
The target in a further series is EF-Tu•GTP R318K (Escherichia coli, UniProt P0CE47, R319K). In words: MST binding assay, EF-Tu R318K mutant.
Another series deals with EF-Tu•GDP (Escherichia coli, UniProt P0CE47). Nature of the series: MST binding assay, EF-Tu•GDP. The arrangement: species or system E. coli.
Another series relates to translation. Nature of the series: In vitro translation assay (DHFR with stop codon, no tmRNA-SmpB). Particulars: DMSO control 100 ± 1.
Series [2] concerns EF-Tu•GTP (Escherichia coli MG1655 (pCA24N tufA, ASKA clone JW3301)). In words: filter binding. Particulars: 10 mM Mg2+, 44 mM KH2PO4, 6 mM K2HPO4, 10 mM MgCl2, 50 µg/mL BSA, pH 5.5 (RNA-binding mix; 34 µL mix + 16 µL EF-Tu), 0.1 nM RNA, 15 s at room temperature.
Where [3] appears, read: no KKL-55, 3'-alanylated with AlaRS.

≈ marks a conversion by molar mass, not a printed value. Read-outs that look alike come from different tables or passages of the source. Bounds are passed on as bounds.

On to `O=C(Nc1nnc(-c2ccc(F)cc2)o1)c1ccc(Cl)cc1` [KKL-35, reference compound], for which the “binding to EF-Tu” value at E. coli EF-Tu•GTP is on record as “No binding”.
A word on the Kd: it is the equilibrium constant for the complex coming apart. `CCCn1nnnc1NC(=O)c1cccc(Cl)c1` [KKL-55]: the bactericidal activity entry in series [1] is given as “bactericidal”. Also, the Kd on EF-Tu•GTP R318N is more than 20 µM; at E. coli EF-Tu•GTP, 2 µM; on EF-Tu•GTP E378A, 2.6 ± 0.2 µM; on EF-Tu•GTP E378A (MST, E378A EF-Tu•GTP), “little effect on binding affinity”; at EF-Tu•GTP H319A it was 2.4 ± 0.1 µM; at EF-Tu•GTP H319A (MST, H319A EF-Tu•GTP), “little impact on binding”. Also, the Kd at EF-Tu•GTP R318K was determined as 2.6 µM; at EF-Tu•GDP, 1.6 ± 0.02 µM. In addition, the “tagging efficiency ± SD” value in the series with trans-translation is reported as 30 ± 2%. The MIC is 2.3 µM (≈ 0.611 µg/mL) against E. coli ∆tolC and “comparable to that of tetracycline” in the series with Francisella tularensis. In addition, the “translation efficiency ± SD” value in the series on translation (100 µM compound) is recorded as 102 ± 2%.
In the case of `O=C(CCCCC1SCC2NC(=O)NC21)NCCn1nnnc1NC(=O)c1cccc(Cl)c1` (centres unmarked) [KKL-201], in the series on trans-translation, the “tagging efficiency ± SD” value was determined as 42 ± 2%. Besides, the “translation efficiency ± SD” value in the series on translation (10 µM compound) is recorded as 99 ± 6%.
Consider `O=C(N[C@H](CO)[C@H](O)c1ccc([N+](=O)[O-])cc1)C(Cl)Cl` [chlor, chloramphenicol, reference compound], for which the “translation efficiency ± SD” value in the series on translation (100 µM compound) worked out at 5 ± 3%.
Regarding Ala-tRNAAla, the Kd in series [2] (setting [3]) is 0.28 µM.
Take Ala-tmRNA: the Kd in [2] (25 µM KKL-55 (substantially reduced, no saturation), 3'-alanylated with AlaRS) was more than 10 µM; in series [2] (setting [3]) it was 0.75 µM.

These data come from paper PMC10653918, “Antibiotic that inhibits trans-translation blocks binding of EF-Tu to tmRNA but not to tRNA” (mBio, 2023).
